Test results taken from patent US4593090A, “Novel nitrosourea compounds, method for preparing same, and pharmaceutical composition containing same” (Gogo Kimura, priority 1981, dated 1986).
Like-named read-outs stand apart in the source and are kept apart here.

Assays:
[1] = Diuretic activity, acute sodium loaded mouse screening test; type: in vivo, male mice; conditions: 50 mg/kg oral in 1% saline; for Cl^- / K^+ / Na^+: urine
Description: The diuretic activity of the compounds of this invention was assayed by the diuresis screening test referred to as "acute sodium loaded mouse". This test was carried out by the following method.
The acute sodium loaded mouse screening test was carried out by using a 10-membered group of male mice (each weighing 18 to 24 g). Test compounds were incorporated in 1% saline (NaCl) solution and orally administered in a volume of 10 ml/kg. The mice were placed in metabolic cages. Each treated group consisted of 10-members. Five members were placed in one cage. Tests were conducted by oral administrations of (A) 1% saline (NaCl) solution to the control group and (B) 1% saline (NaCl) solution containing a test compound according to this invention.
The determination was carried out for sodium, potassium, and chlorine in each pooled urine sample. The determination of sodium and potassium was carried out by flame photometer. Chlorine was determined by chloride analysis apparatus. The analytical values of sodium, potassium, and chlorine were shown with an average mg equivalent (m Eq)/Kg/5 hours, and the diuretic activity was shown with an average urine volume (ml)/Kg/5 hours.

[2] = Acute toxicity (LD50, Behrens-Karber method); type: in vivo, ICR mice; conditions: mouse, in vivo, ip, mortality during 30 days
Description: Test compounds, dissolved or suspended in 0.5% aqueous CMC, were each intraperitoneally administered to ICR mice in a dose of 0.1 ml per 10 g body weight. LD50 (mg/kg) value of each test compound was calculated from the mortality of mice during 30 days by the Behrens-Karber method.

[3] = tested on: Ehrlich acites carcinoma; assay: Growth-inhibiting effect against Ehrlich acites carcinoma; type: in vivo, male mice; conditions: Mus musculus, Ehrlich, 120 h, 5 days; for response vs control in vivo at 25 mg/kg: 25 mg/kg/day ip; for response vs control in vivo at 100 mg/kg: 100 mg/kg/day ip
How it was run: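 Male mice (groups of 6) implanted intraperitoneally with 1×10^7 Ehrlich ascites cells; compounds in 1% Nikkol HCO-60 given i.p. once daily for 5 days starting 24 hrs post-implantation. Total packed cell volume measured at day 7; T/C% vs untreated group, scored - (100-66), + (65-41), ++ (40-11), +++ (10-0).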

[4] = tested on: Leukemia L1210; assay: Activity against Leukemia L1210, intraperitoneal, increase in life span of mice; type: in vivo, female mice (BDF1 family); conditions: for ED (maximum ILS) / ED30: Mus musculus, L1210, ip, ip once a day for 5 successive days; for ED (maximum ILS): daily dosage giving maximum increase of life span, read-out: O.D. (optimum dosage); for ED30: daily dosage increasing average survival days by 30%, read-out: ILS30; for Survivors after 60 days / Max. ILS % / Therapeutic ratio TR: ip; for Survivors after 60 days: 6-membered group; for Max. ILS %: 60-day observation, versus control; for Therapeutic ratio TR: O.D./ILS30
How it was run: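 Female BDF1 mice (20 to 23 g, 6 per group) implanted ip with 1×10^5 L1210 cells; test compound given ip or orally once daily for 5 days starting 24 h later. ILS% from mean survival days vs untreated controls over 60 days; T.R. = O.D./ILS30.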

Structure (SMILES)	Urine volume [1] [ml/kg/5 hrs.]	Cl^- [1] [mEq/kg/5 hrs.]	K^+ [1] [mEq/kg/5 hrs.]	Na^+ [1] [mEq/kg/5 hrs.]	LD50 at 720 h [2] [mg/kg]	response vs control in vivo at 25 mg/kg ([3]; read-out: Activity) [%]	response vs control in vivo at 25 mg/kg ([3]; read-out: T/C %) [%]	response vs control in vivo at 100 mg/kg ([3]; read-out: Activity) [%]	response vs control in vivo at 100 mg/kg ([3]; read-out: T/C %) [%]	ED (maximum ILS) [4] [mg/kg]	ED30 [4] [mg/kg]	Survivors after 60 days [4]	Max. ILS % [4] [%]	Therapeutic ratio TR [4]
COCCN(C[C@H]1O[C@H](OCC(C)C)[C@H](O)[C@@H](O)[C@@H]1O)C(=O)N(CCCl)N=O [Compound 15, 3-(2-methoxyethyl)-3-(isobutyl α-D-glucopyranose-6-yl)-1-(2-chloroethyl)-1-nitrosourea]	9.2	0.7	0.9	0.6	570	0 to 10	0	0 to 10	0	180	2.9	6/6	> 700	62.1
CCCCO[C@H]1O[C@H](CN(CCCOC)C(=O)N(CCCl)N=O)[C@@H](O)[C@H](O)[C@H]1O [Compound 10]	8.7	0.6	0.8	0.5	480	0 to 10	0	0 to 10	0	150	3.1	6/6	> 700	48.4
CCOCCCN(C(=O)N(CCCl)N=O)[C@H]1[C@H](OC(C)CC)OC[C@H](O)[C@@H]1O (stereo partly drawn) [Compound 157, 3-(3-ethoxy-n-propyl)-3-(sec-butyl α-L-arabinopyranose-2-yl)-1-(2-chloroethyl)-1-nitrosourea]	10.5	1.1	1.0	0.8	550	0 to 10	0	0 to 10	0	170	2.94	6/6	> 700	57.8
CC(C)(C)N(C[C@H]1O[C@H](OCCN2CCOCC2)[C@H](O)[C@@H](O)[C@@H]1O)C(=O)N(CCCl)N=O [Compound 181, 3-tert-butyl-3-(2-morpholinoethyl α-D-glucopyranose-6-yl)-1-(2-chloroethyl)-1-nitrosourea]	13.1	1.3	1.2	1.1	530	0 to 10	0	0 to 10	0	160	2.89	6/6	> 700	55.4
CCCCO[C@H]1O[C@H](CO)[C@@H](O)[C@H](O)[C@H]1N(CCCOC)C(=O)N(CCCl)N=O [Compound 57, 3-(3-methoxy-n-propyl)-3-(n-butyl α-D-glucopyranose-2-yl)-1-(2-chloroethyl)-1-nitrosourea]	9.7	0.8	0.9	0.7	570	0 to 10	0	0 to 10	0	190	5.5	3/6	> 355	34.5
